Measured values from ChEMBL document CHEMBL5346923, “Novel pyridinium cationic pleuromutilin analogues overcoming bacterial multidrug resistance” (Eur J Med Chem, 2023).
≈ marks a conversion by molar mass, not a printed value.

Assays:
Type in all cases: functional
Enterococcus = assay: Antibacterial activity against vancomycin-resistant Enterococcus ATCC 700221 assessed as inhibition of bacterial growth measured after 24 hrs by MH broth based assay
Bacillus subtilis = assay: Antibacterial activity against Bacillus subtilis ATCC 6633 assessed as inhibition of bacterial growth measured after 24 hrs by MH broth based assay
Staphylococcus aureus [1] = assay: Antibacterial activity against Staphylococcus aureus ATCC 29213 assessed as inhibition of bacterial growth measured after 24 hrs by MH broth based assay
Staphylococcus aureus [2] = assay: Antibacterial activity against methicillin-resistant Staphylococcus aureus ATCC 43300 assessed as inhibition of bacterial growth measured after 24 hrs by MH broth based assay
Streptococcus pneumoniae = assay: Antibacterial activity against Streptococcus pneumoniae ATCC 49619 assessed as inhibition of bacterial growth measured after 24 hrs by MH broth based assay
[3] = system: Staphylococcus epidermidis; assay: Antibacterial activity against methicillin-resistant Staphylococcus epidermidis ATCC 51625 assessed as inhibition of bacterial growth measured after 24 hrs by MH broth based assay
Klebsiella pneumoniae = assay: Antibacterial activity against Klebsiella pneumonia CMCC (B) 46117 assessed as inhibition of bacterial growth measured after 24 hrs by MH broth based assay
Escherichia coli [4] = assay: Antibacterial activity against Escherichia coli ATCC 25922 assessed as inhibition of bacterial growth measured after 24 hrs by MH broth based assay
Proteus = assay: Antibacterial activity against Proteus CMCC (B) 49027 assessed as inhibition of bacterial growth measured after 24 hrs by MH broth based assay
Escherichia coli [5] = assay: Antibacterial activity against Escherichia coli MG1655 assessed as inhibition of bacterial growth measured after 24 hrs by MH broth based assay
Escherichia coli [6] = assay: Antibacterial activity against Escherichia coli MG1655 harbouring acrB gene assessed as inhibition of bacterial growth measured after 24 hrs by MH broth based assay

| Structure (SMILES) | MIC (Enterococcus) | MIC (Bacillus subtilis) | MIC (Staphylococcus aureus [1]) | MIC (Staphylococcus aureus [2]) | MIC (Streptococcus pneumoniae) | MIC [3] | MIC (Klebsiella pneumoniae) | MIC (Escherichia coli [4]) | MIC (Proteus) | MIC (Escherichia coli [5]) | MIC (Escherichia coli [6]) |
| --- | --- | --- | --- | --- | --- | --- | --- | --- | --- | --- | --- |
| C=C[C@]1(C)C[C@@H](OC(=O)CSc2cc[n+](CCCCCCCCCC(=O)O)cc2)[C@]2(C)[C@H](C)CC[C@]3(CCC(=O)[C@H]32)[C@@H](C)[C@@H]1O.[I-] | 64 µg/mL | > 64 µg/mL | 4 µg/mL | 4 µg/mL | 1 µg/mL | 2 µg/mL | > 64 µg/mL | > 64 µg/mL | > 64 µg/mL | > 64 µg/mL | 32 µg/mL |
| C=C[C@]1(C)C[C@@H](OC(=O)CSc2cc[n+](CC(=O)N3CCOCC3)cc2)[C@]2(C)[C@H](C)CC[C@]3(CCC(=O)[C@H]32)[C@@H](C)[C@@H]1O.[I-] | 64 µg/mL | > 64 µg/mL | 16 µg/mL | 16 µg/mL | 4 µg/mL | 8 µg/mL | > 64 µg/mL | > 64 µg/mL | > 64 µg/mL | 64 µg/mL | 8 µg/mL |
| C=C[C@]1(C)C[C@@H](OC(=O)CSc2cc[n+](COC)cc2)[C@]2(C)[C@H](C)CC[C@]3(CCC(=O)[C@H]32)[C@@H](C)[C@@H]1O.[I-] | 32 µg/mL | 64 µg/mL | 0.25 µg/mL | 0.25 µg/mL | 0.25 µg/mL | 0.5 µg/mL | 64 µg/mL | 64 µg/mL | > 64 µg/mL | 64 µg/mL | 1 µg/mL |
| CN[C@H](CC(C)C)C(=O)N[C@H]1C(=O)N[C@@H](CC(N)=O)C(=O)N[C@H]2C(=O)N[C@H]3C(=O)N[C@H](C(=O)N[C@H](C(=O)O)c4cc(O)cc(O)c4-c4cc3ccc4O)[C@H](O)c3ccc(c(Cl)c3)Oc3cc2cc(c3O[C@@H]2O[C@H](CO)[C@@H](O)[C@H](O)[C@H]2O[C@H]2C[C@](C)(N)[C@H](O)[C@H](C)O2)Oc2ccc(cc2Cl)[C@H]1O [VANCOMYCIN] | 64 µg/mL (≈ 44.2 µM) | 0.125 µg/mL (≈ 0.0863 µM) | – | – | 0.25 µg/mL (≈ 0.173 µM) | 0.5 µg/mL (≈ 0.345 µM) | > 64 µg/mL | > 64 µg/mL | > 64 µg/mL | > 64 µg/mL | > 64 µg/mL |
| C=C[C@]1(C)C[C@@H](OC(=O)CSc2cc[n+](CC(=O)NCc3ccccc3C)cc2)[C@]2(C)[C@H](C)CC[C@]3(CCC(=O)[C@H]32)[C@@H](C)[C@@H]1O.[I-] | 64 µg/mL | 64 µg/mL | 0.5 µg/mL | 0.5 µg/mL | 0.5 µg/mL | 1 µg/mL | 8 µg/mL | 64 µg/mL | 64 µg/mL | 32 µg/mL | 1 µg/mL |
| C=C[C@]1(C)C[C@@H](OC(=O)CSc2cc[n+](CC(C)C)cc2)[C@]2(C)[C@H](C)CC[C@]3(CCC(=O)[C@H]32)[C@@H](C)[C@@H]1O.[I-] | 64 µg/mL | 64 µg/mL | 0.5 µg/mL | 0.5 µg/mL | 0.25 µg/mL | 0.5 µg/mL | 64 µg/mL | 64 µg/mL | > 64 µg/mL | 64 µg/mL | 2 µg/mL |
| C=C[C@]1(C)C[C@@H](OC(=O)CSc2cc[n+](CC(=O)N3CCS(=O)(=O)CC3)cc2)[C@]2(C)[C@H](C)CC[C@]3(CCC(=O)[C@H]32)[C@@H](C)[C@@H]1O.[I-] | 64 µg/mL | > 64 µg/mL | 8 µg/mL | 8 µg/mL | 2 µg/mL | 4 µg/mL | > 64 µg/mL | > 64 µg/mL | > 64 µg/mL | 32 µg/mL | 16 µg/mL |
| C=C[C@]1(C)C[C@@H](OC(=O)CSc2cc[n+](Cc3ccc(C)cc3)cc2)[C@]2(C)[C@H](C)CC[C@]3(CCC(=O)[C@H]32)[C@@H](C)[C@@H]1O.[I-] | 64 µg/mL | > 64 µg/mL | 0.5 µg/mL | 0.5 µg/mL | < 0.031 µg/mL | 0.063 µg/mL | 32 µg/mL | 64 µg/mL | > 64 µg/mL | 64 µg/mL | 2 µg/mL |
| C=C[C@]1(C)C[C@@H](OC(=O)CSc2cc[n+](CCCCCCCCCCCC)cc2)[C@]2(C)[C@H](C)CC[C@]3(CCC(=O)[C@H]32)[C@@H](C)[C@@H]1O.[I-] | 16 µg/mL | 8 µg/mL | 8 µg/mL | 8 µg/mL | 4 µg/mL | 8 µg/mL | 32 µg/mL | 32 µg/mL | 64 µg/mL | 32 µg/mL | 8 µg/mL |
| C=C[C@]1(C)C[C@@H](OC(=O)CSc2cc[n+](CCCCCC(=O)O)cc2)[C@]2(C)[C@H](C)CC[C@]3(CCC(=O)[C@H]32)[C@@H](C)[C@@H]1O.[I-] | 64 µg/mL | > 64 µg/mL | 8 µg/mL | 16 µg/mL | 4 µg/mL | 8 µg/mL | > 64 µg/mL | > 64 µg/mL | > 64 µg/mL | 64 µg/mL | 32 µg/mL |
| C=C[C@]1(C)C[C@@H](OC(=O)CSc2cc[n+](CC(=O)O)cc2)[C@]2(C)[C@H](C)CC[C@]3(CCC(=O)[C@H]32)[C@@H](C)[C@@H]1O.[I-] | 64 µg/mL | > 64 µg/mL | 8 µg/mL | 4 µg/mL | 2 µg/mL | 2 µg/mL | > 64 µg/mL | > 64 µg/mL | > 64 µg/mL | > 64 µg/mL | 32 µg/mL |
| C=CCC[n+]1ccc(SCC(=O)O[C@@H]2C[C@@](C)(C=C)[C@@H](O)[C@H](C)[C@]34CCC(=O)[C@H]3[C@@]2(C)[C@H](C)CC4)cc1.[I-] | 16 µg/mL | 64 µg/mL | 0.25 µg/mL | 0.25 µg/mL | 0.125 µg/mL | 0.25 µg/mL | 16 µg/mL | 64 µg/mL | 64 µg/mL | 32 µg/mL | 0.25 µg/mL |
| C=C[C@]1(C)C[C@@H](OC(=O)CSc2cc[n+](C(C)C)cc2)[C@]2(C)[C@H](C)CC[C@]3(CCC(=O)[C@H]32)[C@@H](C)[C@@H]1O.[I-] | 64 µg/mL | 64 µg/mL | 0.5 µg/mL | 1 µg/mL | 1 µg/mL | 2 µg/mL | 64 µg/mL | 64 µg/mL | 64 µg/mL | 64 µg/mL | 2 µg/mL |
| C=C[C@]1(C)C[C@@H](OC(=O)CSc2cc[n+](Cc3ccc(-c4ccccc4C#N)cc3)cc2)[C@]2(C)[C@H](C)CC[C@]3(CCC(=O)[C@H]32)[C@@H](C)[C@@H]1O.[I-] | 32 µg/mL | 32 µg/mL | 1 µg/mL | 1 µg/mL | < 0.031 µg/mL | 0.125 µg/mL | 32 µg/mL | 64 µg/mL | > 64 µg/mL | 64 µg/mL | 8 µg/mL |
| C#CCC[n+]1ccc(SCC(=O)O[C@@H]2C[C@@](C)(C=C)[C@@H](O)[C@H](C)[C@]34CCC(=O)[C@H]3[C@@]2(C)[C@H](C)CC4)cc1.[I-] | 64 µg/mL | 64 µg/mL | 0.5 µg/mL | 0.5 µg/mL | 0.125 µg/mL | 0.25 µg/mL | 64 µg/mL | 64 µg/mL | > 64 µg/mL | 64 µg/mL | 1 µg/mL |
| C=C[C@]1(C)C[C@@H](OC(=O)CSc2cc[n+](CC(=O)N3CCCC3)cc2)[C@]2(C)[C@H](C)CC[C@]3(CCC(=O)[C@H]32)[C@@H](C)[C@@H]1O.[I-] | 64 µg/mL | > 64 µg/mL | 4 µg/mL | 4 µg/mL | 1 µg/mL | 2 µg/mL | 64 µg/mL | 64 µg/mL | > 64 µg/mL | 64 µg/mL | 4 µg/mL |
| C=C[C@]1(C)C[C@@H](OC(=O)CSc2cc[n+](Cc3ccc(OC)cc3)cc2)[C@]2(C)[C@H](C)CC[C@]3(CCC(=O)[C@H]32)[C@@H](C)[C@@H]1O.[I-] | 4 µg/mL | 16 µg/mL | 0.063 µg/mL | 0.125 µg/mL | < 0.031 µg/mL | 0.031 µg/mL | 4 µg/mL | 64 µg/mL | > 64 µg/mL | 64 µg/mL | 0.5 µg/mL |
| C=CC[n+]1ccc(SCC(=O)O[C@@H]2C[C@@](C)(C=C)[C@@H](O)[C@H](C)[C@]34CCC(=O)[C@H]3[C@@]2(C)[C@H](C)CC4)cc1.[I-] | 32 µg/mL | 64 µg/mL | 0.5 µg/mL | 1 µg/mL | 0.25 µg/mL | 0.25 µg/mL | 64 µg/mL | 64 µg/mL | > 64 µg/mL | 64 µg/mL | 1 µg/mL |
| C=C[C@]1(C)C[C@@H](OC(=O)CSc2cc[n+](CC(=O)N3CCC(CO)CC3)cc2)[C@]2(C)[C@H](C)CC[C@]3(CCC(=O)[C@H]32)[C@@H](C)[C@@H]1O.[I-] | 64 µg/mL | 64 µg/mL | 2 µg/mL | 2 µg/mL | 2 µg/mL | 4 µg/mL | 64 µg/mL | 64 µg/mL | > 64 µg/mL | 64 µg/mL | 16 µg/mL |
| C#CC[n+]1ccc(SCC(=O)O[C@@H]2C[C@@](C)(C=C)[C@@H](O)[C@H](C)[C@]34CCC(=O)[C@H]3[C@@]2(C)[C@H](C)CC4)cc1.[I-] | 16 µg/mL | 32 µg/mL | 0.125 µg/mL | 0.125 µg/mL | < 0.031 µg/mL | 0.031 µg/mL | 8 µg/mL | 64 µg/mL | > 64 µg/mL | 64 µg/mL | 0.5 µg/mL |
